Assays:
[1] = test system: NF-kB; experiment: NF-kB promoter-driven firefly luciferase reporter assay in SH-5YSY clone C1; format: cell-based, human; conditions: for IC50: Homo sapiens, SH-5YSY clone C1, NF-kB luciferase reporter
From the text: SH-5YSY human neuroblastoma cell line was obtained from the American Tissue Culture collection (ATCC). The cells were expanded and frozen for long term storage. A commercially available expression vector containing the NF-kB promoter enhancer region driving the firefly lucipherase gene expression (see FIG. 1) was obtained. This plasmid was designed for transient expression studies and was devoid of any antibiotic-resistance conferring gene. A second plasmid containing the gene conferring resistance to blasticidin was also used. A dual transfection approach to obtain stable cell lines was employed. Prior to transfection, blasticidin sensitivity of the cell line was performed (See FIG. 2). It was determined that SH-5YSY cells were sensitive to the antibiotic toxicity and that 3 μg/ml caused total cell death (FIG. 2). After expanding and purifying adequate quantities of these plasmids, SH-5YSY cells were co-transfected with the above two plasmids and the clonal selection of the transfected cells in the presence of blasticidin proceeded. Several clones were identified that were both resistant to blasticidin and expressed the firefly luciferase upon exposure to TNF-α, □ a known inducer of NF-kB (See FIG. 3). After several assessments, a clone, C1, which expressed high levels of stimulated-luciferase expression and maintained it over time (see FIG. 3) was identified. To date, this clone has been in culture for over 37 passages without significant decline of the gene of interest induction. The optimal conditions for this assay to be carried out in a high throughput setting has been determined. Initially, the optimal number of cells needed was assessed. In FIG. 4 it is shown the effect of using a range of cells from 10,000 to 40,000. […] The assays has have been implemented using a similar cell density for HTS analysis without excessive problems. This cell line allows growing large scale quantities of cells fairly easily.
Successively, the optimal time of incubation and media requirements were assessed. […] These conditions are relatively affordable in HTS settings. Finally, since during robotic handling the plates containing the cells spend a significant amount of time outside the incubator and since phenol red could interfere with the reagents in the luciferase activity assay kit, the effect of using a phenol red free HEPES-buffered media was assessed. As shown in FIG. 5 there is a very little effect of phenol red free, HEPES-buffered media on the assay response and dynamic range. Therefore, the assessment is that it is possible to run this assay using these more forgiving media. Since the compounds contained in the most commonly used libraries are dissolved in DMSO, the effect of DMSO on both luciferase expression in response to TNF-α and C1 clone survival during assay simulations was characterized. The effect of increasing concentration of DMSO ranging from 0.05% through 0.5% on TNF-α induction of luciferase (black line and black scale) is shown in FIG. 6. Also the effect of DMSO on baseline expression of luciferase in the C1 clone is shown in FIG. 6 (gray line and gray scale). In FIG. 7, it is shown the effect of DMSO on cell survival in the same conditions described in FIG. 6. In these experimental settings cells, settled for 24 hours, and then were incubated for an additional 24 hours with DMSO at the indicated concentrations. At the end of the incubation phase cell viability was assessed using the commercially available kit Cell Titer Glo™ following the manufacturer instructions ([…]). […] Finally, the effect of different concentrations of TNF-α was studied in the clone C1.
Essential to development of an assay for high throughput screening is the assessment of Z′ values. This statistical parameter assesses the possibility that data obtained in a single well are statistically significant. In general, assays can generate negative and positive Z′ values. Negative Z′ values indicate a very unpredictable assay. […]

[2] = test system: SH-5YSY cells; experiment: Blasticidin sensitivity of SH-5YSY cells; format: cell-based, human
From the text: SH-5YSY human neuroblastoma cell line was obtained from the American Tissue Culture collection (ATCC). The cells were expanded and frozen for long term storage. A commercially available expression vector containing the NF-kB promoter enhancer region driving the firefly lucipherase gene expression (see FIG. 1) was obtained. This plasmid was designed for transient expression studies and was devoid of any antibiotic-resistance conferring gene. A second plasmid containing the gene conferring resistance to blasticidin was also used. A dual transfection approach to obtain stable cell lines was employed. Prior to transfection, blasticidin sensitivity of the cell line was performed (See FIG. 2). It was determined that SH-5YSY cells were sensitive to the antibiotic toxicity and that 3 μg/ml caused total cell death (FIG. 2). After expanding and purifying adequate quantities of these plasmids, SH-5YSY cells were co-transfected with the above two plasmids and the clonal selection of the transfected cells in the presence of blasticidin proceeded. […] The optimal conditions for this assay to be carried out in a high throughput setting has been determined. Initially, the optimal number of cells needed was assessed. […] This cell line allows growing large scale quantities of cells fairly easily.

[3] = test system: I-kB and NF-kB p65; experiment: Effect on I-kB and NF-kB p65 in cytoplasm and nucleus (FIG. 14); format: cell-based; conditions: FIG. 14 A
From the text: A) I-kB was not affected by CMPD exposure while it was reduced by TNF. B) CMPDs increased cytoplasmic NF-kB p65. C) CMPDs increased nuclear localization of NF-kB p65. D) The sum of CMPD effects on P65 in the cytoplasm and in the nucleus.

| Molecule | IC50 [1] [µM] | other results |
| --- | --- | --- |
| Cc1ccc2nc(-c3ccc(NS(=O)(=O)c4ccccc4OC(F)(F)F)cc3)sc2c1 [AB00003451] | 0.156 |  |
| Cc1ccc2nc(-c3ccc(NS(=O)(=O)c4ccc(F)c(Cl)c4)cc3)sc2c1 [AB00011625] | 0.111 |  |
| COc1cc(C)c(S(=O)(=O)Nc2ccc(-c3nc4ccc(C)cc4s3)cc2)c(C)c1C [AB00012207] | 0.155 |  |
| COc1ccc(-c2coc3cc(OC)cc(O)c3c2=O)cc1 [AB00052939] | 1.73 |  |
| S=C(c1ccc(-c2ccc(Cl)c(Cl)c2)o1)N1CCOCC1 [AB00091724] | 5.19 |  |
| S=C(c1ccc(-c2ccc(Cl)cc2)o1)N1CCOCC1 [AB00092070] | 0.775 |  |
| S=C(c1ccc(-c2cccc(Cl)c2)o1)N1CCOCC1 [AB00092117] | 3.4 |  |
| COc1ccc(-c2noc(-c3cccc(OC)c3)n2)cc1 [AB00093467] | 0.082 |  |
| COc1ccccc1-c1nc(-c2ccc(C)cc2)no1 [AB00093558] | 0.1 |  |
| Fc1ccc(-c2cn3ccsc3n2)cc1 [AB00093742] | 0.382 |  |
| Brc1cccc(-c2cn3ccsc3n2)c1 [AB00093745] | 0.251 |  |
| CC(C)(C)c1ccc(-c2csc(N)n2)cc1 [AB00095939] | 0.133 |  |
| COc1ccc(-c2csc(Nc3ccc(N(C)C)cc3)n2)cc1 [AB00101290] | 0.144 |  |
| CCOC(=O)CC[C@H](NC(=O)c1ccc(NCc2cnc3nc(N)nc(N)c3c2C)cc1)C(=O)OCC [AB00174102] | 0.345 |  |
| COc1ccc(-c2cn3c4c(sc3n2)CCCC4)cc1 [AB00315863] | 0.65 |  |
| Fc1ccc(-c2nc3n(n2)Cc2ccccc2-3)cc1 [AB00371839] | 0.125 |  |
| O=c1c(-c2ccc3c(c2)OCCO3)coc2cc(O)cc(O)c12 [AB00390364] | 22.7 |  |
| Clc1c(CSc2nc3ccccc3o2)nc2sccn12 [AB00428616] | 2.41 |  |
| COc1cc(NCc2cnc3nc(N)nc(N)c3c2C)cc(C(F)(F)F)c1 [AB00443206] | 0.123 |  |
| Brc1ccc(-c2cn3ccccc3n2)s1 [AB00528862] | 0.094 |  |
| COCCNc1nc(-c2cc3ccccc3o2)cs1 [AB00546194] | 1.4 |  |
| C=CCNc1nc(-c2cc3ccccc3o2)cs1 [AB00546606] | 0.598 |  |
| c1ccc2oc(-c3csc(N4CCOCC4)n3)cc2c1 [AB00613917] | 0.966 |  |
| CC(=O)CSc1nc2cc3c(cc2cc1C#N)OCCO3 [AB00614173] | 0.104 |  |
| O=C(Nc1ccc2c(c1)OCCO2)Nc1ccc2c(c1)OCO2 [AB00616088] | 0.114 |  |
| CN(CC[C@H](N)CC(=O)N[C@H]1C=C[C@H](n2ccc(N)nc2=O)O[C@@H]1C(=O)O)C(=N)N [blasticidin] |  | concentration causing total cell death [2]: 3 µg/mL |
| TNF-α [reference compound] |  | luciferase expression in C1 cells ([1]; 0.625 up to 40 ng/ml): linear increase; I-kB [3]: reduced |

Continued, in another order:

| IC50 [1] [µM] | Molecule | other results |
| --- | --- | --- |
| 0.067 | COc1ccccc1C1CCN(C(=O)NCCc2ccccc2)CC1 [AB00013805] |  |
| 0.065 | C=C(C)CN(CC)C(=O)Nc1ccc(-c2ccccc2)cc1 [AB00022459] |  |
| 0.13 | COc1cccc(-c2nnc(-c3ccccc3NS(=O)(=O)c3ccc(NC(C)=O)cc3)o2)c1 [AB00027137] |  |
| 0.122 | Nc1nc(-c2ccc(-c3ccccc3)cc2)cs1 [AB00074195] |  |
| 0.067 | COC(=O)c1sc2nc(-c3ccccc3)ccc2c1N [AB00079098] |  |
| 0.142 | Cc1ccc(-c2csc(Nc3ccccc3)n2)cc1 [AB00079697] |  |
| 3650 | O=C1/C(=C\c2ccco2)Sc2ccccc21 [AB00083422] |  |
| 3.72 | O=C1/C(=C\c2ccc(O)cc2)Sc2ccccc21 [AB00083765] |  |
| 0.062 | Clc1ccc(-c2nnc(-c3ccccc3Cl)o2)cc1 [AB00084000] |  |
| 0.213 | O=C(/C=C/Nc1cc(Cl)ccc1O)c1ccccc1 [AB00087011] |  |
| 1310 | Cc1ccc(/C=C2/SC(=S)N(CCC(=O)Nc3ccc(O)cc3)C2=O)cc1 [AB00089877] |  |
| 0.382 | Oc1ccccc1C1NN=C(c2ccccc2)S1 (stereo not drawn) [AB00092734] |  |
| 4.06 | Clc1ccc(C2NN=C(c3ccccc3)S2)cc1 (stereo not drawn) [AB00093093] |  |
| 0.788 | Oc1ccc2ccccc2c1C1NN=C(c2ccccc2)S1 (stereo not drawn) [AB00093094] |  |
| 0.079 | COc1ccccc1-c1nc(-c2ccccc2Cl)no1 [AB00093511] |  |
| 0.064 | O=c1[nH]c(/C=C/c2ccc(O)cc2)nc2ccccc12 [AB00097657] |  |
| 0.062 | Cc1ccc(-c2csc(Nc3ccc(C(=O)O)cc3)n2)cc1C [AB00097765] |  |
| 3.97 | CCC(=O)NC(c1ccccc1Cl)c1ccc2cccnc2c1O (stereo not drawn) [AB00100961] |  |
| 3.17 | CCC(=O)NC(c1ccc(C)cc1)c1ccc2cccnc2c1O (stereo not drawn) [AB00101018] |  |

| IC50 [1] [µM] | Molecule | other results |
| --- | --- | --- |
| 3.7 | CCC(=O)NC(c1cccc([N+](=O)[O-])c1)c1ccc2cccnc2c1O (stereo not drawn) [AB00101133] |  |
| 0.337 | O=C(O)c1ccc(-c2nnc(-c3ccccc3Cl)o2)cc1 [AB00101507] |  |
| 0.579 | Cc1ccccc1-c1cc(-c2ccccc2O)n[nH]1 [AB00101695] |  |
| 0.213 | O=C(/C=C\Nc1cc(Cl)ccc1O)c1ccc2c(c1)OCO2 [AB00101723] |  |
| 0.235 | COc1ccc(C(=O)/C=C(\C)Nc2ccccc2O)cc1 [AB00102118] |  |
| 0.18 | O=C(Nc1ccc(F)cc1)N1CCc2ccccc21 [AB00105762] |  |
| 146 | O=C(CCN1C(=O)/C(=C\C=C\c2ccccc2)SC1=S)Nc1cc(Cl)ccc1O [AB00120582] |  |
| 0.545 | O=C(CCN1C(=O)/C(=C\C=C\c2ccccc2)SC1=S)Nc1ccc(C(=O)O)cc1 [AB00121550] |  |
| 0.159 | CN(Cc1cnc2nc(N)nc(N)c2c1)c1ccc(C(=O)N[C@@H](CCC(=O)O)C(=O)O)cc1 [AB00171904] |  |
| 0.328 | Cc1nnc(SCC(=O)Nc2ccc(-c3nc4ccccc4s3)cc2)s1 [AB00317535] |  |
| 0.697 | COc1ccc(NC(=O)N2CCc3ccccc32)cc1 [AB00329861] |  |
| 12.6 | c1ccc(CSCc2cn3ccsc3n2)cc1 [AB00421150] |  |
| 4.52 | CC(C)Oc1cc(O)c2c(=O)c(-c3ccc(O)cc3)coc2c1 [AB00431689] |  |
| 0.639 | Oc1ccccc1-c1cc(-c2ccc3c(c2)OCCO3)[nH]n1 [AB00440877] |  |
| 0.968 | COc1ccc(-c2cc(-c3ccccc3O)[nH]n2)cc1 [AB00461411] |  |
| 5.98 | Cc1ccc(/C=C2\Sc3ccccc3C2=O)s1 [AB00534272] |  |
| 0.393 | Cc1ccc2nc(-c3ccc(NC(=O)COC(=O)c4cncc(Br)c4)cc3)sc2c1 [AB00542926] |  |
| 0.155 | Cc1ccc2nc(-c3ccc(NC(=O)CCN4C(=O)c5ccccc5C4=O)cc3)sc2c1 [AB00547004] |  |
| 0.361 | Cc1ccc(NC(=O)N2CCc3ccccc32)cc1C [AB00616066] |  |
